Measured values published in patent US20260109732A1, “LIPID AMINES” (ModernaTX, Inc., priority 2021, published 2026).
Structures can show the parent of a compound that is named as a salt.

How the values were obtained:
HeLa cells [1] = experiment: Luciferase Protein Expression Assay in HeLa Cells; assay type: cell-based, Human; conditions: LNPs encapsulating Luciferase mRNA, 25 ng per well, N=4 wells; 5 h serum-free then 24 h; ONE-Glo
Method: (§1) For HeLa studies evaluating luciferase protein expression, PEG-DMG-2K dissolved in a 20 mM TRIS buffer (pH 7.5) is added to the neutralized intermediate nanoparticle solution at a ratio of 1:6, bringing the solution to the final molar ratios of IL1:DSPC:cholesterol:PEG-DMG-2K of 48.5:11.1:38.9:1.5%. This nanoparticle formulation is then modified with lipid amines. In a typical example, nanoparticle formulation at a concentration of 0.18 mg/mL mRNA and a 0.56 mL volume is modified with lipid amine SA50 (467.2 nmol) prepared in buffer containing 20 mM TRIS, 14.3 mM sodium acetate, 32 g/L sucrose and 140 mM NaCl-pH 7.5 at a volumetric ratio of 1:1 of nanoparticle:buffer.
(§2) Lipid nanoparticle compositions were prepared in a manner analogous to that in example 2. To evaluate LNP cellular uptake and protein expression In Vitro, HeLa cells from ATCC.org (ATCC CCL-2) are used. The cells are cultured in complete Minimum Essential Medium (MVEM) and are plated in 96 well Cell Carrier Ultra plate with PDL coated surface (PerkinElmer) prior to running an experiment.
Cells were transfected with buffer control (PBS) or LNPs encapsulating Luciferase mRNA (25 ng per well; N=4 replicate wells) in serum-free MEM media. LNP transfected cells were incubated for 5 h, followed by media removal and supplementation with complete MEM media. Cells were further incubated in complete MEM media overnight (24 h). Following the 24 hr incubation, luciferase protein expression was measured using the ONE-Glo™ Luciferase Assay (Promega). Cells were lysed using 1× Passive Lysis Buffer (Cat. #E194A) for 10 min in a microplate mixer at room temperature. Luciferase in the supernatant was measured by adding Luciferase Assay Reagent (Cat. #E151A) containing luciferin. Bioluminescence was then immediately measured on a Synergy H1 plate reader (BioTek). The results shown in Table 3a show the Average Relative Light Units (RLU) of each sample tested.

[2] = Encapsulation of mRNA nanoparticles with lipid amines using Ribogreen assay; assay type: physicochemical
Method: (§3) Lipids are dissolved in ethanol at a concentration of 24 mg/mL and molar ratios of 49.0:11.2:39.3:0.5 (IL1:DSPC:cholesterol:PEG-DMG-2K) and mixed with the acidification buffer (45 mM acetate buffer at pH 4). The lipid solution and acidification buffer are mixed using a multi-inlet vortex mixer at a 3:7 volumetric ratio of lipid:buffer for mixer 1 and mixer 2 and a 1:3 volumetric ratio of lipid:buffer (25% ethanol) for mixer 3. After a 5 second residence time, the resulting nanoparticles are mixed with 55 mM sodium acetate at pH 5.6 at a volumetric ratio of 5:7 of nanoparticle:buffer. See Table 2a for mixing parameters. The resulting dilute nanoparticles are then buffer exchanged and concentrated using tangential flow filtration (TFF) into a final buffer containing 5 mM sodium acetate pH 5.0. Then a 70% sucrose solution in 5 mM acetate buffer at pH 5 is subsequently added.
(§4) The resulting nanoparticles at a lipid concentration of 7.33 mg/mL in 5 mM acetate (pH 5) and 75 g/L sucrose are mixed with mRNA (luciferease or CFTR) at a concentration of 0.625 mg/mL in 42.5 mM sodium acetate pH 5.0, with N:P of 4.93. The nanoparticle solution and nanoparticles are mixed using a multi-inlet vortex mixer at a 3:2 volumetric ratio of nanoparticle:mRNA. Once loaded with mRNA, these intermediate nanoparticles undergo a 300 second residence time prior addition of neutralization buffer containing 120 mM TRIS pH 8.12 at a volumetric ratio of 5:1 of nanoparticle:buffer.
as §1
(§5) For HeLa studies evaluating CFTR protein expression, the intermediate nanoparticle formulation (1 mL, 0.415 mg mRNA) is mixed with a buffer containing 20 mM TRIS (pH 7.5), 0.9 mg/mL PEG-DMG-2K and lipid amine SA50 (647.1 nmol) at a volumetric ratio of 6:1 of nanoparticle:buffer. The resulting nanoparticle suspension undergoes concentration using a centrifugal filtration device (100 kDa molecular weight cut-off) and is diluted in running buffer (20 mM TRIS, 14.3 mM sodium acetate, and 32 g/L sucrose, pH 7.5) with a 300 mM NaCl solution to a final buffer matrix containing 70 mM NaCl.
(§6) Both resulting nanoparticle suspensions are filtered through a 0.8/0.2 μm capsule filter and filled into glass vials at an mRNA strength of about 0.1-1 mg/mLBliophysical data (Diameter and PDI from DLS measurements and Encapsualtion using Ribogreen assay) for both luciferase and CFTR mRNA nanoparticles with lipid amines is shown in Tables 2c and d, respectively.

HeLa cells [3] = experiment: CFTR Protein Expression Assay in HeLa Cells; assay type: cell-based, Human; conditions: LNPs encapsulating CFTR mRNA, N=4 wells; 5 h serum-free then 24 h; immunofluorescence vs PBS control
Method: as §5, §2
Buffer control (PBS) and LNPs encapsulating cystic fibrosis transmembrane conductance regulator (CFTR) mRNA were dosed with MEM media in the absence of serum (N=4 replicate wells). LNP transfected cells were incubated for 5 h, followed by media removal and supplementation with complete MEM media. Cells were further incubated in complete MEM media overnight (24 h).
Following 24 hr incubation, the cells were fixed with PFA and processed for immunofluorescence (IF) using an anti-CFTR rabbit monoclonal antibody. Briefly, the cells were permeabilized with 0.5% TX-100 for 10 min, blocked with 3% bovine serum albumin (BSA)+PBST for 1 hr at room temperature, and incubated with primary anti-CFTR monoclonal antibody overnight at 4° C. Following primary antibody incubation, the cells were incubated with Alexa 488 conjugated secondary antibody for 30 mi and stained with DAPI and HCS CellMask Blue stain. Between different incubation steps the cells were either washed with PBS or PBST. Cells were imaged using Opera Phoenix spinning disk confocal microscope (PerkinElmer), and CFTR protein expression was detected using the 488 nm channel. The image analysis was performed in Harmony 4.9, with main analysis output being CFTR intensity per cell. The results shown in Table 3b show fold-change in CFTR signal intensity per cell compared to buffer (PBS) control (NA=not available).

[4] = Diameter and PDI from DLS measurements of mRNA nanoparticles with lipid amines; assay type: physicochemical
Method: as §3, §4, §1, §5, §6

[5] = CFTR mRNA nanoparticle with lipid amine
[6] = Luciferase mRNA nanoparticle modified with lipid amine

| Structure (SMILES) | Average Relative Light Units ± Standard Deviation (HeLa cells [1]) | % Encapsulation (Ribogreen) [2, 5] | % Encapsulation (Ribogreen) [2, 6] | Average fold-change in CFTR signal intensity per cell compared to buffer control ± standard deviation (HeLa cells [3]) | Diameter (nm) [4, 5] | PDI [4, 5] | Diameter (nm) [4, 6] | PDI [4, 6] |
| --- | --- | --- | --- | --- | --- | --- | --- | --- |
| CC(C)CCC[C@@H](C)[C@H]1CC[C@H]2[C@@H]3CC=C4C[C@@H](OC(=O)CC(=O)N(CCCN)CCCCNCCCN)CC[C@]4(C)[C@H]3CC[C@]12C.Cl.Cl.Cl [SA59, (3S,8S,9S,10R,13R,14S,17R)-10,13-Dimethyl-17-((R)-6-methylheptan-2-yl)-2,3,4,7,8,9,10,11,12,13,14,15,16,17-tetradecahydro-1H-cyclopenta[a]phenanthren-3-yl 3-((3-aminopropyl)(4-((3-aminopropyl)amino)butyl)amino)-3-oxopropanoate trihydrochloride] | 17590.1 ± 6267.4 Relative Light Units | 99.6% | 99.7% | 5.6 ± 0.5 fold-change | 76.9 nm | 0.15 | 74 nm | 0.15 |
| CC(C)CCC[C@@H](C)[C@H]1CC[C@H]2[C@@H]3CC=C4C[C@@H](OC(=O)N(CCCN)CCCCCCCCN)CC[C@]4(C)[C@H]3CC[C@]12C [SA60, (3S,8S,9S,10R,13R,14S,17R)-10,13-Dimethyl-17-((R)-6-methylheptan-2-yl)-2,3,4,7,8,9,10,11,12,13,14,15,16,17-tetradecahydro-1H-cyclopenta[a]phenanthren-3-yl (8-aminooctyl)(3-aminopropyl)carbamate dihydrochloride] | 30508.5 ± 6869.7 Relative Light Units | 99.5% | 98.8% | 10.7 ± 0.1 fold-change | 70.9 nm | 0.08 | 74 nm | 0.13 |
| CC(C)CCC[C@@H](C)[C@H]1CC[C@H]2[C@@H]3CC=C4C[C@@H](OC(=O)N(CCCCNC(C)CCN)C(C)CCN)CC[C@]4(C)[C@H]3CC[C@]12C (stereo partly drawn) [SA74, (3S,8S,9S,10R,13R,14S,17R)-10,13-dimethyl-17-((R)-6-methylheptan-2-yl)-2,3,4,7,8,9,10,11,12,13,14,15,16,17-tetradecahydro-1H-cyclopenta[a]phenanthren-3-yl (4-aminobutan-2-yl)(4-((4-aminobutan-2-yl)amino)butyl)carbamate trihydrochloride] | 23899.2 ± 6943.7 Relative Light Units |  | 99.1% |  |  |  | 75 nm | 0.19 |
| CC[C@H](CC[C@@H](C)[C@H]1CC[C@H]2[C@@H]3CC=C4C[C@@H](OC(=O)N(CCCCNC(C)CCN)C(C)CCN)CC[C@]4(C)[C@H]3CC[C@]12C)C(C)C (stereo partly drawn) [SA113, (3S,8S,9S,10R,13R,14S,17R)-17-((2R,5R)-5-ethyl-6-methylheptan-2-yl)-10,13-dimethyl-2,3,4,7,8,9,10,11,12,13,14,15,16,17-tetradecahydro-1H-cyclopenta[a]phenanthren-3-yl (4-aminobutan-2-yl)(4-((4-aminobutan-2-yl)amino)butyl)carbamate trihydrochloride] | 20665.4 ± 7510.5 Relative Light Units |  | 99.7% |  |  |  | 77 nm | 0.23 |
| CC[C@H](CC[C@@H](C)[C@H]1CC[C@H]2[C@@H]3CC=C4C[C@@H](OC(=O)N(CCCCNCC(F)(F)CN)CC(F)(F)CN)CC[C@]4(C)[C@H]3CC[C@]12C)C(C)C [SA116, (3S,8S,9S,10R,13R,14S,17R)-17-((2R,5R)-5-ethyl-6-methylheptan-2-yl)-10,13-dimethyl-2,3,4,7,8,9,10,11,12,13,14,15,16,17-tetradecahydro-1H-cyclopenta[a]phenanthren-3-yl (3-amino-2,2-difluoropropyl)(4-((3-amino-2,2-difluoropropyl)amino)butyl)carbamate trihydrochloride] | 110.9 ± 26.9 Relative Light Units |  | 97.6% |  |  |  | 73 nm | 0.20 |
| CC(C)CCC[C@@H](C)[C@H]1CC[C@H]2[C@@H]3CC=C4C[C@@H](OC(=O)CN(CCCCCCCCN)C(=O)[C@@H](N)CCCCN)CC[C@]4(C)[C@H]3CC[C@]12C.Cl.Cl.Cl [SA130, (3S,8S,9S,10R,13R,14S,17R)-10,13-dimethyl-17-((R)-6-methylheptan-2-yl)-2,3,4,7,8,9,10,11,12,13,14,15,16,17-tetradecahydro-1H-cyclopenta[a]phenanthren-3-yl N-(L-lysyl)-N-(8-aminooctyl)glycinate trihydrochloride] |  | 95.7% |  | 1.0 ± 0 fold-change | 85.7 nm | 0.18 |  |  |
| CC[C@H](CC[C@@H](C)[C@H]1CC[C@H]2[C@@H]3CC=C4C[C@@H](OC(=O)N(CCCCNC)CCCNC)CC[C@]4(C)[C@H]3CC[C@]12C)C(C)C [SA180, (3S,8S,9S,10R,13R,14S,17R)-17-((2R,5R)-5-ethyl-6-methylheptan-2-yl)-10,13-dimethyl-2,3,4,7,8,9,10,11,12,13,14,15,16,17-tetradecahydro-1H-cyclopenta[a]phenanthren-3-yl (4-(methylamino)butyl)(3-(methylamino)propyl)carbamate dihydrochloride] | 35476 ± 6770.8 Relative Light Units |  | 98.7% |  |  |  | 76 nm | 0.17 |
